Data as given in article PMC8509398, “Proteolytic Cleavage of Bioactive Peptides and Protease-Activated Receptors in Acute and Post-Colitis” (International Journal of Molecular Sciences, 2021).
Residues, ends and D or L forms follow the SMILES beside them.

Tests used:
[1] = biological target: thrombin (Homo sapiens, UniProt P00734); assay: Cleavage of peptides by purified thrombin, MALDI-TOF/TOF; settings: 25 nM protease, 10 µM peptide; for Incubation time at which the first cleavage or decrease of the full-length peptide was observed, thrombin: 37 °C, time points 2, 5, 10, 30 min; for TL disarming (D), Thrombin / TL unmasking (U), Thrombin: PAR-based peptides, 37 °C, 2, 5, 10 and 30 min
From the text: (§1) Trypsin-like proteases included in the experiments are trypsin-1, -2 and -3, tryptase (Enzo LifeSciences), thrombin (Sigma-Aldrich) and cathepsin G (Sigma-Aldrich). Trypsin-1, -2 and -3 were produced as described by Koistinen et al. and Wu et al.. Two elastase-like enzymes, neutrophil elastase (Enzo LifeSciences, Farmingdale, NY, USA) and pancreatic elastase I (Sigma-Aldrich) were included as well. All enzymes were from human origin except for pancreatic elastase from porcine pancreas.
(§2) Reaction mixtures with purified enzymes were compiled in an identical way. Each mixture contained an equimolar concentration of protease (25 nM based on) and 10 µM peptide of interest and was incubated for 2, 5, 10 and 30 min at 37 °C. Substance P was added as the standard peptide except for the reaction mixtures with substance P or bradykinin as the peptide of interest, where angiotensin II (Bachem) was added.
(§3) The TFA mixtures were thawed on ice and desalted using C18 zip-tips (Merck Millipore®, Burlington, MA, USA) with a capacity of 5 µg protein. Retained peptide fragments were eluted directly on the MALDI target plate. Next, 0.5 µL of a 2.5 mg/mL α-cyano-4-hydroxycinnamic acid (Sigma-Aldrich) matrix solution (in 70% acetonitrile, 0.1% TFA) was spotted on top of the sample. A 6-Peptide mixture Kit (AB Sciex, Framingham, MA, USA) containing bradykinin (2–9), angiotensin I, glu1-fibrinopeptide, ACTH (1–17), ACTH (18–39) and ACTH (7–38) was diluted with matrix and spotted on the plate as well.
(§4) MS and MS/MS data for peptide fragment identification were obtained with a MALDI-TOF/TOF instrument (4800 MALDI TOF/TOF™, Applied Biosystems, Waltham, MA, USA) and instrument parameters were set using 4000 Series Explorer™ software. MS spectra were recorded in positive reflector mode in a mass range from 500 to 4000 Da and laser intensity of 4500–4800 Hz. The spectra were calibrated using the calibration mixture mentioned above to a mass tolerance of 0.1 Da. MS/MS spectra were recorded with high-energy collision-induced dissociation and the laser intensity was increased by 10%. Precursor mass m/z 1570.65 (Glu1-Fibrinopeptide from the calibration mixture) was used to calibrate the MS/MS spectra to a mass tolerance of 0.1 Da.
(§5) MS and MS/MS spectra were processed using DataExplorer™ software and the obtained output files were uploaded in the MS-PEP data analyzer (https://bioit.shinyapps.io/PARs/ accessed 10/08/2020) for peptide fragment identification. Identified fragments were confirmed using the MS/MS spectra and mMass 5.5.0 by Martin Strohalm. The relative intensities of the fragments were calculated as the ratio of the intensity of the peak of interest to the intensity of the peak of the standard peptide.

[2] = biological target: T1, trypsin-3 (Homo sapiens, UniProt P35030); assay: Cleavage of peptides by purified trypsin-3, MALDI-TOF/TOF; settings: 25 nM protease, 10 µM peptide; for TL disarming (D), Trypsin-3 / TL unmasking (U), Trypsin-3: PAR-based peptides, 37 °C, 2, 5, 10 and 30 min
T1 sequence (P35030 1-304): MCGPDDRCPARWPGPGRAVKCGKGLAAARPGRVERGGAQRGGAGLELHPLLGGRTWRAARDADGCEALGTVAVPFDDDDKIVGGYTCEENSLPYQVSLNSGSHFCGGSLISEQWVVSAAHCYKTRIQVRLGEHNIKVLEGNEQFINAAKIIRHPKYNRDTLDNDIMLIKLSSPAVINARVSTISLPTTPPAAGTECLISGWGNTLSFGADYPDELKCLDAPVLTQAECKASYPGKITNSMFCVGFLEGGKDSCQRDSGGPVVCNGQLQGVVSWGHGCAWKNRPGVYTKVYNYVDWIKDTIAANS
From the text: as §1, §2, §3, §4, §5

[3] = biological target: pancreatic elastase I (Sus scrofa, UniProt P00772); assay: Cleavage of peptides by purified pancreatic elastase, MALDI-TOF/TOF; settings: 25 nM protease, 10 µM peptide; for TL disarming (D), Pancreatic Elastase / TL unmasking (U), Pancreatic Elastase: PAR-based peptides, 37 °C, 2, 5, 10 and 30 min
Chain of pancreatic elastase I (P00772 27-266): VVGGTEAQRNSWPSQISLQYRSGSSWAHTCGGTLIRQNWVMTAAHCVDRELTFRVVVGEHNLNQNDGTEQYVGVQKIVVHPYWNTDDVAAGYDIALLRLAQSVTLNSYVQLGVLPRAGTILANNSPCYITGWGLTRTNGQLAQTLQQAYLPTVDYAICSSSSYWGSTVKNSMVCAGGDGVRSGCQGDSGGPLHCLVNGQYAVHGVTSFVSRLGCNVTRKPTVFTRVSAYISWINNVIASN
From the text: as §1
(§6) Reaction mixtures with purified enzymes were compiled in an identical way. […] Substance P was added as the standard peptide except for the reaction mixtures with substance P or bradykinin as the peptide of interest, where angiotensin II (Bachem) was added.
as §3
as §4, with “10%.” for “10%. Precursor mass m/z 1570.65 (Glu1-Fibrinopeptide from the calibration mixture) was used to calibrate the MS/MS spectra to a mass tolerance of 0.1 Da.”
(§7) Identified fragments were confirmed using the MS/MS spectra and mMass 5.5.0 by Martin Strohalm. The relative intensities of the fragments were calculated as the ratio of the intensity of the peak of interest to the intensity of the peak of the standard peptide.

[4] = biological target: tryptase (Homo sapiens, UniProt Q15661); assay: Cleavage of peptides by purified tryptase, MALDI-TOF/TOF; settings: 25 nM protease, 10 µM peptide; for TL disarming (D), Tryptase / TL unmasking (U), Tryptase: PAR-based peptides, 37 °C, 2, 5, 10 and 30 min
Chain of tryptase (Q15661 31-275): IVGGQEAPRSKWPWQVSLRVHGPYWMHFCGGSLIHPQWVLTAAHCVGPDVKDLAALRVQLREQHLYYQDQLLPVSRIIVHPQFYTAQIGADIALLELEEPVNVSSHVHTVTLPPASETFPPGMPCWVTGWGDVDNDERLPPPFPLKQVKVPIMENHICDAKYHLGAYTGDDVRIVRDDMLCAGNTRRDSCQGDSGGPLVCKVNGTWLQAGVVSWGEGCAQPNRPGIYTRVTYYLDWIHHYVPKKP
From the text: as §1, §2, §3, §4, §5

[5] = biological target: trypsin-1 (Homo sapiens, UniProt P07477); assay: Cleavage of peptides by purified trypsin-1, MALDI-TOF/TOF; settings: 25 nM protease, 10 µM peptide; for Incubation time at which the first cleavage or decrease of the full-length peptide was observed, trypsin-1: 37 °C, time points 2, 5, 10, 30 min; for TL disarming (D), Trypsin-1 / TL unmasking (U), Trypsin-1: PAR-based peptides, 37 °C, 2, 5, 10 and 30 min
From the text: as §1, §2, §3, §4, §5

[6] = biological target: trypsin-2 (Homo sapiens, UniProt P07478); assay: Cleavage of peptides by purified trypsin-2, MALDI-TOF/TOF; settings: 25 nM protease, 10 µM peptide; for Incubation time at which the first cleavage or decrease of the full-length peptide was observed, trypsin-2: 37 °C, time points 2, 5, 10, 30 min; for TL disarming (D), Trypsin-2 / TL unmasking (U), Trypsin-2: PAR-based peptides, 37 °C, 2, 5, 10 and 30 min
Chain of trypsin-2 (P07478 24-247): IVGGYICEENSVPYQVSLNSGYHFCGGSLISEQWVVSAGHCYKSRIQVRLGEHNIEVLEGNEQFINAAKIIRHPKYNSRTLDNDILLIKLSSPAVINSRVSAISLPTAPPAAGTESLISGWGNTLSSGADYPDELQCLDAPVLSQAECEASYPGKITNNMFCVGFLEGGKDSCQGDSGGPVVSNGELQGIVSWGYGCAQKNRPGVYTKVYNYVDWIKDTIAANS
From the text: as §1, §2, §3, §4, §5

[7] = biological target: T2, cathepsin G (Homo sapiens, UniProt P08311); assay: Cleavage of peptides by purified cathepsin G, MALDI-TOF/TOF; settings: 25 nM protease, 10 µM peptide; for TL disarming (D), Cathepsin G / TL unmasking (U), Cathepsin G: PAR-based peptides, 37 °C, 2, 5, 10 and 30 min
T2 sequence (P08311 21-255): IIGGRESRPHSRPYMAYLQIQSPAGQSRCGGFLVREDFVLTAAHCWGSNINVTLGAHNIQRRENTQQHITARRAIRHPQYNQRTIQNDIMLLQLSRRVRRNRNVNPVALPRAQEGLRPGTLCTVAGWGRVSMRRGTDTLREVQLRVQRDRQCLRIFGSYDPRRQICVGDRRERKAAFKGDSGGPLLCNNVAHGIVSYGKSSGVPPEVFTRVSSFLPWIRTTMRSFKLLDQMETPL
From the text: as §1, §6, §3
as §4, with “10%.” for “10%. Precursor mass m/z 1570.65 (Glu1-Fibrinopeptide from the calibration mixture) was used to calibrate the MS/MS spectra to a mass tolerance of 0.1 Da.”
as §7

[8] = biological target: T3, neutrophil elastase (Homo sapiens, UniProt P08246); assay: Cleavage of peptides by purified neutrophil elastase, MALDI-TOF/TOF; settings: 25 nM protease, 10 µM peptide; for TL disarming (D), Neutrophil Elastase / TL unmasking (U), Neutrophil Elastase: PAR-based peptides, 37 °C, 2, 5, 10 and 30 min
T3 sequence (P08246 30-267): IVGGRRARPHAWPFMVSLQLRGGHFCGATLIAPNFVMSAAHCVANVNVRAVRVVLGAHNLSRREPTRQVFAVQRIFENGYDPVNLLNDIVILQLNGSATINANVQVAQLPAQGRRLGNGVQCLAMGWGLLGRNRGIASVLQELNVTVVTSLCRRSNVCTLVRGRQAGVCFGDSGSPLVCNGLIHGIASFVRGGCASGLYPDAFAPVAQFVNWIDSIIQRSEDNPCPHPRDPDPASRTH
From the text: as §1, §6, §3
as §4, with “10%.” for “10%. Precursor mass m/z 1570.65 (Glu1-Fibrinopeptide from the calibration mixture) was used to calibrate the MS/MS spectra to a mass tolerance of 0.1 Da.”
as §7

[9] = 37 °C, time points 2, 5, 10, 30 min

Row | SMILES | Incubation time at which the first cleavage or decrease of the full-length peptide was observed, thrombin [1] [min] | TL disarming (D), Thrombin [1] | TL unmasking (U), Thrombin [1] | TL disarming (D), Trypsin-3 [2] | TL unmasking (U), Trypsin-3 [2] | TL disarming (D), Pancreatic Elastase [3] | TL unmasking (U), Pancreatic Elastase [3] | TL disarming (D), Tryptase [4] | TL unmasking (U), Tryptase [4] | Incubation time at which the first cleavage or decrease of the full-length peptide was observed, trypsin-1 [5] [min] | TL disarming (D), Trypsin-1 [5] | TL unmasking (U), Trypsin-1 [5] | Incubation time at which the first cleavage or decrease of the full-length peptide was observed, trypsin-2 [6] [min] | TL disarming (D), Trypsin-2 [6] | TL unmasking (U), Trypsin-2 [6] | TL disarming (D), Cathepsin G [7] | TL unmasking (U), Cathepsin G [7] | TL disarming (D), Neutrophil Elastase [8] | TL unmasking (U), Neutrophil Elastase [8] | further results
1 | CC[C@H](C)[C@H](NC(=O)[C@H](CC(C)C)NC(=O)[C@H](CO)NC(=O)[C@H](CCCNC(=N)N)NC(=O)CNC(=O)[C@H](CCCCN)NC(=O)[C@H](CO)NC(=O)[C@H](CO)NC(=O)[C@H](CCCNC(=N)N)NC(=O)[C@H](CC(N)=O)NC(=O)[C@@H](NC(=O)CNC(=O)[C@H](CCC(N)=O)NC(=O)[C@@H](NC(=O)[C@@H](N)[C@@H](C)O)[C@@H](C)CC)[C@@H](C)O)C(=O)NCC(=O)N[C@@H](CCCCN)C(=O)N[C@H](C(=O)N[C@@H](CC(=O)O)C(=O)NCC(=O)N[C@H](C(=O)N[C@@H](CO)C(=O)N[C@@H](Cc1c[nH]cn1)C(=O)N[C@H](C(N)=O)C(C)C)[C@@H](C)O)C(C)C [PAR2-based] (H-TIQGTNRSSKGRSLIGKVDGTSHV-NH2) | > 30 | − | − | − | − | − | − | − | +++ (ultrafast processing within 2 min) | 2 | − | +++ (ultrafast processing within 2 min) | 2 | − | +++ (ultrafast processing within 2 min) | − | − | + (processing after 10 or 30 min) | − | Incubation time at which the first cleavage or decrease of the full-length peptide was observed, trypsin-3 [2, 9]: > 30 min; Incubation time at which the first cleavage or decrease of the full-length peptide was observed, pancreatic elastase [3, 9]: > 30 min; Incubation time at which the first cleavage or decrease of the full-length peptide was observed, tryptase [4, 9]: 2 min; Incubation time at which the first cleavage or decrease of the full-length peptide was observed, cathepsin G [7, 9]: > 30 min; Incubation time at which the first cleavage or decrease of the full-length peptide was observed, neutrophil elastase [8, 9]: 30 min
2 | CC[C@H](C)[C@H](NC(=O)[C@@H]1CCCN1C(=O)[C@H](CC(C)C)NC(=O)[C@@H](NC(=O)[C@@H]1CCCN1C(=O)[C@H](CCCCN)NC(=O)[C@H](C)NC(=O)[C@H](CC(C)C)NC(=O)[C@H](CC(N)=O)NC(=O)[C@H](CC(N)=O)NC(=O)[C@@H](NC(=O)[C@H](CC(=O)O)NC(=O)[C@H](CC(N)=O)NC(=O)[C@H](CCC(=O)O)NC(=O)[C@H](CCSC)NC(=O)CN)[C@@H](C)O)[C@@H](C)O)C(=O)N[C@@H](CCCCN)C(=O)N[C@H](C(=O)N[C@@H](Cc1ccccc1)C(=O)N[C@@H](CCCNC(=N)N)C(=O)NCC(=O)N[C@@H](C)C(=O)N1CCC[C@H]1C(=O)N1CCC[C@H]1C(=O)N[C@@H](CC(N)=O)C(=O)N[C@@H](CO)C(=O)N[C@@H](Cc1ccccc1)C(=O)N[C@@H](CCC(=O)O)C(N)=O)[C@@H](C)O [PAR3-based] (H-GMENDTNNLAKPTLPIKTFRGAPPNSFE-NH2) | 2 | − | +++ (ultrafast processing within 2 min) | + (processing after 10 or 30 min) | − | +++ (ultrafast processing within 2 min) | − | +++ (ultrafast processing within 2 min) | − | 2 | +++ (ultrafast processing within 2 min) | +++ (ultrafast processing within 2 min) | 2 | ++ (fast processing after 5 min) | +++ (ultrafast processing within 2 min) | +++ (ultrafast processing within 2 min) | − | +++ (ultrafast processing within 2 min) | − | 
